This note sets out measurements from ChEMBL document CHEMBL1909559, “Design, synthesis, and biological evaluation of benzodiazepine-based SUMO-specific protease 1 inhibitors” (Bioorg Med Chem Lett, 2011).

SMILES strings stand for the structures. pIC50: −log10 of the molar value. Bounds are passed on as bounds.

In the first test the target is T1, Sentrin-specific protease 1 (Homo sapiens, UniProt Q9P0U3).
T1 sequence (Q9P0U3 whole entry): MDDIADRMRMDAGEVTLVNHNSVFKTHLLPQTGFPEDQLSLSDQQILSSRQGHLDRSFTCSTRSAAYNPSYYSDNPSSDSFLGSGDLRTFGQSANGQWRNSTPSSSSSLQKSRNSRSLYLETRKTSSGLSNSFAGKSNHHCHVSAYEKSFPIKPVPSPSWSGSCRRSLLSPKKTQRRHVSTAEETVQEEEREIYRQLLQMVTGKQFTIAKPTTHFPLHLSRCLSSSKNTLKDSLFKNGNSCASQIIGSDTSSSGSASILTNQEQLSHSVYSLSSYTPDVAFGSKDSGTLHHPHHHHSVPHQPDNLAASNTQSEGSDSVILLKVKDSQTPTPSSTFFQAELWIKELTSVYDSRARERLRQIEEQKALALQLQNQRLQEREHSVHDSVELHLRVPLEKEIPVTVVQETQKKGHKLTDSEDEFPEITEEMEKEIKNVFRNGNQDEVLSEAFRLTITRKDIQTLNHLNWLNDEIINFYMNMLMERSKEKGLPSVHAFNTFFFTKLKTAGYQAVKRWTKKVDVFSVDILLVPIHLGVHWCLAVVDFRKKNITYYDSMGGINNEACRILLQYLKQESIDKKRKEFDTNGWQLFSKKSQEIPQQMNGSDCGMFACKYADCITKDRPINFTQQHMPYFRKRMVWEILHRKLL
The experiment in a line: Inhibition of histidine-tagged human SENP1 catalytic domain preincubated for 10 mins by SUMO-CHOP-PLA2 reporter fluorescence assay.
Compound `O=C(NC1N=C(c2ccccc2)c2ccccc2N(CCO)C1=O)OCc1ccccc1` (stereo not drawn) showed a pIC50 of less than 4.00.
Still for that read-out and setting: the result for `O=CCCN1C(=O)C(NC(=O)OCc2ccccc2)N=C(c2ccccc2)c2ccccc21` (stereo not drawn) reads less than 4.00; that for `CC(C)(C)OC(=O)Nc1ccc(C(=O)NC2N=C(c3ccccc3)c3ccccc3N(CC=O)C2=O)cc1` (stereo not drawn), less than 4.00.
Compound `O=CCN1C(=O)C(NC(=O)OCc2ccccc2)N=Cc2ccccc21` (stereo not drawn) had a negative logarithm of the IC50 (pIC50) of less than 4.00.
On the same count and under the same terms, in the case of `CC(=O)Nc1cccc(C(=O)NC2N=C(c3ccccc3)c3ccccc3N(CC=O)C2=O)c1` (stereo not drawn) it was less than 4.00; in that of `CC(C)(C)OC(=O)Nc1cccc(C(=O)NC2N=C(c3ccccc3)c3ccccc3N(CC=O)C2=O)c1` (stereo not drawn), less than 4.00.

The next test has as its system PC-3. Briefly: Cytotoxicity against human PC3 cells.
In turn, `O=CCN1C(=O)C(NC(=O)c2cccc(NC(=O)OCc3ccccc3)c2)N=C(c2ccccc2)c2ccccc21` (stereo not drawn) had a pIC50 of 4.45.
`O=CCN1C(=O)C(NC(=O)c2ccc(NC(=O)OCc3ccccc3)cc2)N=C(c2ccccc2)c2ccccc21` (stereo not drawn) had a pIC50 of 4.89.

Usually pIC50 stands for the IC50 on a negative log10 scale, so that one unit is a factor of ten. The low end stands for a large IC50, the high end for a small IC50.
